From publication PMC8838197, “Coumarin-Resveratrol-Inspired Hybrids as Monoamine Oxidase B Inhibitors: 3-Phenylcoumarin versus trans-6-Styrylcoumarin” (Molecules, 2022)
Values joined by “and” are separate entries in the source; they are usually repeats but may differ in a detail not shown here. Identical values can stand only once. Like-named read-outs stand apart in the source and are kept apart here.

Assays:
[1] = test system: MAO-A; settings: cited from earlier work; for pIC50 MAO-A: Table S8; for MAO-A pIC50: data set compounds
[2] = test system: MAO-B; set-up: pIC50 MAO-B: unit not given here; settings: cited from earlier work; for MAO-B pIC50: data set compounds
[3] = target: T1, hMAO-B (Homo sapiens, UniProt P27338); assay: hMAO-B inhibition, Amplex Red MAO assay, recombinant enzyme
T1 sequence (P27338 1-520): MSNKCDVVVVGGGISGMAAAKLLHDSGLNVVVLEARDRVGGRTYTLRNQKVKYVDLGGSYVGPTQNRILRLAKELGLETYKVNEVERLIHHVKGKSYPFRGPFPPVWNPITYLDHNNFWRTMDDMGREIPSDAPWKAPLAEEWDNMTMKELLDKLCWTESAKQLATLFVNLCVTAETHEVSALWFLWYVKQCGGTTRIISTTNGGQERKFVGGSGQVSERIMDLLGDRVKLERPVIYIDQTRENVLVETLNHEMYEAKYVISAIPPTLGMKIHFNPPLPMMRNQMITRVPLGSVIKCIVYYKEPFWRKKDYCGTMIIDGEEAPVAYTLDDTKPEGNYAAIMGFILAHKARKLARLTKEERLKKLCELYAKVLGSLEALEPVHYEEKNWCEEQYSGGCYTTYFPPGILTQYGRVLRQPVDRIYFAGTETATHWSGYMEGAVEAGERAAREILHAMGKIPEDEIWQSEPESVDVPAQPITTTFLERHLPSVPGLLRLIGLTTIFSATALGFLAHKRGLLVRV

[4] = target: T2, hMAO-A (Homo sapiens, UniProt P21397); assay: hMAO-A inhibition, Amplex Red MAO assay, recombinant enzyme
T2 sequence (P21397 1-527): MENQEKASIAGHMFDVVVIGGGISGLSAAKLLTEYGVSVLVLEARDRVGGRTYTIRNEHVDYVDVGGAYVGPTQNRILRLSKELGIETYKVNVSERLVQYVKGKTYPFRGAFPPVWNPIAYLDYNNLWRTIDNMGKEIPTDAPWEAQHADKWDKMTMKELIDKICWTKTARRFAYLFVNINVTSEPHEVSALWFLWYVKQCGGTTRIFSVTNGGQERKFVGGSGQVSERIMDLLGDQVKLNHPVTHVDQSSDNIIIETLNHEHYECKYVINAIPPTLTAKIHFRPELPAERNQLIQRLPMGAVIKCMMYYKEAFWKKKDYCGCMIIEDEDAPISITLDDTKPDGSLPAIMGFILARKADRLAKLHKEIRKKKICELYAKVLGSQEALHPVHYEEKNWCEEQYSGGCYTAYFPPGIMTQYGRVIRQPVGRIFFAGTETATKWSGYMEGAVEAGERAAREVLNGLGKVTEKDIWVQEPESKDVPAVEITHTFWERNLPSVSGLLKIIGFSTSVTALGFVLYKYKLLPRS

SMILES | pIC50 MAO-A [1] | pIC50 MAO-B ([2]; Table S8) | also measured
COc1ccc(-c2cc3cc([N+](=O)[O-])ccc3oc2=O)cc1 [Compound 54] | 5.932 | 8.523 | 
O=c1oc2cc(O)ccc2cc1-c1cc(Br)cs1 [Compound 146] | 5.038 | 6.854 | 
O=c1oc2c(O)c(O)ccc2cc1-c1cc(Br)cs1 [Compound 147] | 5.216 | 4.663 | 
CC(=O)Nc1ccc2c(C)cc(=O)oc2c1 [Compound 153] | 4.59 |  | 
Cc1ccc2oc(=O)c(-c3ccccc3O)cc2c1 [Compound 24] | 4.666 | 6.921 | MAO-B pIC50 [2]: > 6.5 and < 6.5
Cc1cc(=O)oc2cc(NC(=O)CC(C)C)ccc12 [Compound 156] | 4.339 | 6.357 | 
O=c1oc2ccccc2cc1-c1ccccc1 [3-Phenylcoumarin] |  |  | S.I. (hMAO-B selectivity index = IC50 (hMAO-A)/IC50 (hMAO-B)) [3]: >8.47; pIC50 MAO-B Exp. ([3]; Table 3): 4.928; IC50 ([3]; read-out: IC50 hMAO-B, recombinant hMAO-B expressed in baculovirus-infected BTI insect cells, n = 5): 11.8 µM; IC50 [4]: > 100 µM
COc1cc(-c2cc3cc(C)cc(Br)c3oc2=O)cc(OC)c1OC [Compound 11] | 4.506 | 5.311 | MAO-A pIC50 [1]: < 5.0
CCC(=O)Nc1ccc2c(C)cc(=O)oc2c1 [Compound 154] | 4.015 |  | 
Cc1cc(=O)oc2cc(NC(=O)CBr)ccc12 [Compound 158] | 4.107 | In | MAO-A pIC50 [1]: < 5.0; IC50 MAO-B ([2]; Table S8): In
Cc1ccc2oc(=O)c(-c3cccc(O)c3)cc2c1 [Compound 23] | 4.455 | 6.187 | 
Cc1ccc(-c2cc3cc(O)ccc3oc2=O)cc1 [Compound 14] | 4.604 | 7.173 | 
O=c1oc2c(O)cccc2cc1-c1ccsc1 [Compound 142] | 4.754 |  | 
O=c1oc2ccc(O)cc2cc1-c1ccc(Br)cc1 [Compound 68] | 4.892 | 7.495 | 
COc1ccc(-c2cc3cccc(OC)c3oc2=O)cc1 [Compound 55] |  |  | MAO-A pIC50 [1]: < 5.0
O=c1ccc2cc(/C=C/c3ccccc3)ccc2o1 [trans-6-Styrylcoumarin] |  |  | IC50 [3]: 0.11 µM; S.I. (hMAO-B selectivity index = IC50 (hMAO-A)/IC50 (hMAO-B)) [3]: >909.09; times more active on MAO-B than the best compound of the resveratrol derivative series of Kong et al. ([3]; comparison with ref 13): 110; times more active on MAO-B than 3-phenylcoumarin ([3]; ratio of IC50): 107; times more active on MAO-B than trans-resveratrol ([3]; ratio of IC50): 267; IC50 [4]: > 100 µM; melting point: 134 to 135 °C

SMILES | pIC50 MAO-A [1] | pIC50 MAO-B ([2]; Table S8) | also measured
Cc1ccc2oc(=O)c(-c3ccc([N+](=O)[O-])cc3)cc2c1 [Compound 88] | 5.379 | 8.678 | 
O=c1oc2ccc3ccccc3c2cc1-c1ccc(O)cc1 [Compound 81] | 4.626 | 6.337 | 
Cc1ccc(C(=O)Nc2cc3cc(C)ccc3oc2=O)cc1 [Compound 41] | 4.337 | 6.77 | 
O=c1oc2c(O)c(O)ccc2cc1-c1ccsc1 [Compound 144] | 5.879 | 5.323 | 
O=c1oc2ccc(O)cc2cc1-c1ccccc1 [Compound 63] | 4.524 | 5.47 | 
Cc1cc(=O)oc2cc(NC(=O)c3ccco3)ccc12 [Compound 163] | 4.521 | 5.3 | MAO-A pIC50 [1]: < 5.0
O=C(O)COc1ccc2oc(=O)c(-c3ccc(Br)cc3)cc2c1 [Compound 73] | 4.898 | 8.154 | MAO-A pIC50 [1]: < 5.0; MAO-B pIC50 [2]: > 6.5
O=c1oc2ccc(OC3CCCC3)cc2cc1-c1cccc(Br)c1 [Compound 72] | 4.354 | 5.747 | MAO-A pIC50 [1]: < 5.0
O=c1oc2c(O)cccc2cc1-c1cc(Br)cs1 [Compound 145] | 5.207 |  | 
O=c1oc2ccc3ccccc3c2cc1-c1cccc(O)c1 [Compound 82] | 4.591 | 5.296 | Experimental pIC50 (MAO-A inhibitors) ([1]; Table S12): 4.354
O=c1oc2cc(O)ccc2cc1-c1ccsc1 [Compound 143] | 5.118 | 5.071 | 
COc1ccc(-c2cc3cccc(C)c3oc2=O)cc1 [Compound 37] | 4.666 | 8.465 | MAO-A pIC50 [1]: < 5.0
Cc1cc(=O)oc2cc(NC(=O)C(C)C)ccc12 [Compound 155] | 4.611 | 4.937 | 
COc1cc(-c2cc3cc(C)ccc3oc2=O)ccc1Br [Compound 20] |  | 9.131 | MAO-B pIC50 [2]: > 6.5
Cc1cc(=O)oc2cc(NC(=O)c3ccc(Cl)cc3)ccc12 [Compound 161] |  | 6.509 | 
O=C(Nc1c(O)c2ccccc2oc1=O)c1ccc(Cl)c(Cl)c1 [Compound 93] |  | 4.721 | 
